The text below walks through data of PubChem BioAssay (NCI).

“And” between values parts separate entries of the source, which are not always exact repeats. Identical values can stand only once.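 1) Cells in 96-well plates. 2) Compound, 48 h, 5 concentrations. 3) Linear interpolation between surrounding doses. 4) Unreached endpoint = highest concentration. GI50 is the concentration that inhibits growth by half. TGI denotes the concentration required for complete inhibition of growth.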

Among the test systems are A498 renal; HL-60(TB) leukemia; HOP-62 NSCLC; HOP-92 NSCLC; LOX IMVI melanoma; SR leukemia; SW-620 colon; U251 CNS; UO-31 renal; HS 578T breast.
Holding throughout (assay): NCI-60 cell line screen, 48 h

Regarding `O=C(/C=C/c1cc(Cl)cc(Cl)c1O)c1cccc(O)c1`, the TGI in the experiment on A498 renal was greater than 100 µM; in the experiment with HL-60(TB) leukemia, 93.9 µM; in the experiment on HOP-62 NSCLC, greater than 100 µM; in the experiment on HOP-92 NSCLC, 84.9 µM; in the experiment with LOX IMVI melanoma it was 25.5 µM; in the experiment on SR leukemia, 59.8 µM. Also, the TGI in the experiment with SW-620 colon is greater than 100 µM; in the experiment on U251 CNS, 80.4 µM; with UO-31 renal it was greater than 100 µM.
With `O=C(NCCCCCCCCCCCCNC(=O)c1cccc2ccccc12)c1cccc2ccccc12`, the TGI in the experiment on A498 renal is greater than 74.4 µM; in the experiment with HL-60(TB) leukemia it was greater than 80.1 µM; in the experiment with HOP-62 NSCLC it was 30.4 µM; in the experiment with HOP-92 NSCLC, greater than 72.1 µM; with LOX IMVI melanoma, greater than 100 µM; with SR leukemia it was greater than 100 µM. Also, the TGI in the experiment with SW-620 colon was greater than 100 µM; in the experiment on U251 CNS, greater than 59.5 µM; in the experiment on UO-31 renal, greater than 61 µM.
Regarding `CC(=O)OCC1OC(n2cc(F)c(=O)[nH]c2=O)C(NC(=O)N(CCCl)N=O)C(OC(C)=O)C1OC(C)=O` (stereo unspecified), the TGI in the experiment on A498 renal, with HL-60(TB) leukemia, with HOP-62 NSCLC, in the experiment on HOP-92 NSCLC, with LOX IMVI melanoma and in the experiment with SR leukemia was greater than 100 µM throughout. Further, the TGI in the experiment on SW-620 colon, in the experiment with U251 CNS and in the experiment on UO-31 renal was greater than 100 µM each time.
Turning to `CC1=Nc2ccccc2S/C1=C(/C)NNS(=O)(=O)c1ccc(C)cc1`, the TGI in the experiment on A498 renal, in the experiment on HL-60(TB) leukemia, with HOP-62 NSCLC, in the experiment with HOP-92 NSCLC, in the experiment with LOX IMVI melanoma and with SR leukemia was greater than 100 µM throughout. The TGI with SW-620 colon, in the experiment with U251 CNS and with UO-31 renal was greater than 100 µM each time.
For the molecule `c1cc(NNc2cccc(-c3nn[nH]n3)c2)cc(-c2nn[nH]n2)c1`, the TGI in the experiment with A498 renal, in the experiment with HOP-62 NSCLC, in the experiment on HOP-92 NSCLC, in the experiment with HS 578T breast, in the experiment on LOX IMVI melanoma and with SW-620 colon was greater than 100 µM throughout. Moreover, the TGI in the experiment with U251 CNS and in the experiment on UO-31 renal was greater than 100 µM throughout.
Take `Fc1cc2[nH]ncc2c2c3c(c(-c4cn[nH]c4C(F)(F)F)nc12)CCCC3`: the GI50 in the experiment with A498 renal was 1.56 µM; with HOP-62 NSCLC, 1.65 µM; in the experiment with HS 578T breast, 1.66 µM; in the experiment on LOX IMVI melanoma, 1.1 µM; in the experiment on SR leukemia, 0.716 µM; with SW-620 colon, 1.36 µM. For the same molecule, the GI50 in the experiment on U251 CNS was 2.57 µM; in the experiment on UO-31 renal, 1.56 µM. In addition, the TGI with A498 renal is 3.09 µM; with HOP-62 NSCLC it was 6.19 µM; with HS 578T breast it was 5.26 µM; with LOX IMVI melanoma, 3.05 µM; in the experiment on SR leukemia, 5.87 µM; in the experiment on SW-620 colon, greater than 100 µM. In addition, the figures for the TGI in the experiment with U251 CNS and with UO-31 renal were greater than 100 µM and 6.02 µM, respectively.
As to `O=C(Nc1ccc2[nH]nc(-c3ccncc3)c2c1)[C@@H]1CCN(CC(=O)N2CCN(c3ccc(-c4ncccn4)cc3)CC2)C1`, the GI50 in the experiment on A498 renal is 0.0778 µM; in the experiment with HL-60(TB) leukemia it was 0.132 µM; with HOP-62 NSCLC it was 0.281 µM; in the experiment with HOP-92 NSCLC, 0.105 µM; in the experiment with HS 578T breast, greater than 100 µM; in the experiment with LOX IMVI melanoma, 0.0539 µM. The GI50 in the experiment with SR leukemia was 4.41 µM; in the experiment with SW-620 colon, 0.101 µM; with U251 CNS it was 0.613 µM. Moreover, the TGI is 0.533 µM with A498 renal; greater than 100 µM with HL-60(TB) leukemia; greater than 100 µM in the experiment with HOP-62 NSCLC; 1.81 µM in the experiment on HOP-92 NSCLC; greater than 100 µM in the experiment on HS 578T breast; greater than 100 µM in the experiment on LOX IMVI melanoma. The TGI with SR leukemia was greater than 65.4 µM; in the experiment on SW-620 colon, greater than 100 µM; in the experiment on U251 CNS it was 18.9 µM.
Take `OCCN1CCN(CCCN2c3ccccc3Sc3ccc(Cl)cc32)CC1`: the GI50 was 1.56 µM in the experiment with A498 renal; 2.06 µM with HL-60(TB) leukemia; 3.02 µM with HOP-62 NSCLC; 1.37 µM in the experiment on HOP-92 NSCLC; 1.98 µM with HS 578T breast; 1.59 µM in the experiment with LOX IMVI melanoma. In addition, the results for the GI50 with SW-620 colon, in the experiment with U251 CNS and with UO-31 renal were 1.77 µM, 1.9 µM and 4.38 µM, respectively. For the same molecule, the TGI in the experiment with A498 renal stood at 5.87 µM; with HL-60(TB) leukemia it was 4.16 µM; with HOP-62 NSCLC it was 12.7 µM; with HOP-92 NSCLC, 6.72 µM; in the experiment on HS 578T breast, 5.71 µM; in the experiment with LOX IMVI melanoma, 3.09 µM. The TGI stood at 3.52 µM with SW-620 colon, 4.33 µM with U251 CNS and 18.3 µM in the experiment on UO-31 renal.
Regarding `COc1cc2c(cc1OC)[C@@H](Nc1ccc(C#N)cc1)C1COC(=O)[C@@H]1C2c1cc(OC)c(O)c(OC)c1` (stereo partly specified), the TGI in the experiment with A498 renal was 0.794 µM; with HL-60(TB) leukemia it was 0.0606 µM and 0.192 µM; in the experiment with HOP-62 NSCLC, 0.325 µM and 0.492 µM; in the experiment with HS 578T breast, 7.54 µM; in the experiment on SR leukemia, 0.0742 µM; with SW-620 colon it was 18.8 µM and > 100 µM. The same molecule returned a TGI in the experiment on UO-31 renal of 11.9 µM. The GI50 is 0.0277 µM and 0.0929 µM in the experiment on HOP-62 NSCLC; 0.0457 µM and 0.178 µM in the experiment with U251 CNS.
In the case of `CCC(C)CCOC(=O)c1ccc(N=Cc2ccc(C=Nc3ccc(C(=O)OCCC(C)CC)cc3)cc2)cc1` (stereo unspecified), the TGI with A498 renal, with HL-60(TB) leukemia, in the experiment with HOP-62 NSCLC, in the experiment with HOP-92 NSCLC, with LOX IMVI melanoma and in the experiment on SR leukemia was greater than 100 µM in each case. For the same molecule, the TGI in the experiment on SW-620 colon, in the experiment on U251 CNS and in the experiment on UO-31 renal was greater than 100 µM in each case.
For the molecule `Cc1cc2nc3c4cc(O)ccc4n(CCN(C)C)c3nc2cc1C`, the GI50 with A498 renal was 0.403 µM; with HL-60(TB) leukemia, 0.364 µM; in the experiment with HOP-62 NSCLC it was 0.676 µM; with HOP-92 NSCLC, 0.287 µM; in the experiment on HS 578T breast, 1.49 µM; with SR leukemia it was 0.309 µM. The GI50 is 0.404 µM in the experiment with SW-620 colon, 0.747 µM in the experiment on U251 CNS and 0.292 µM with UO-31 renal. Besides, the TGI was found to be 2.04 µM with A498 renal; 1.76 µM in the experiment with HL-60(TB) leukemia; 12.4 µM with HOP-62 NSCLC; 2.62 µM in the experiment on HOP-92 NSCLC; 5.41 µM with HS 578T breast; 1.8 µM with SW-620 colon. Besides, the results for the TGI with U251 CNS and in the experiment on UO-31 renal were 4.46 µM and 2.07 µM, respectively.
